{
  "source": "BindingDB's records for patent US12247013",
  "about": "(Antabio, 2025)",
  "biological_target": "Elastase (Pseudomonas aeruginosa (strain ATCC 15692 / DSM 22644 / CIP 104116 / JCM 14847 / LMG 12228 / 1C / PRS 101 / PAO1), UniProt P14756)",
  "sequence (P14756 whole entry)": "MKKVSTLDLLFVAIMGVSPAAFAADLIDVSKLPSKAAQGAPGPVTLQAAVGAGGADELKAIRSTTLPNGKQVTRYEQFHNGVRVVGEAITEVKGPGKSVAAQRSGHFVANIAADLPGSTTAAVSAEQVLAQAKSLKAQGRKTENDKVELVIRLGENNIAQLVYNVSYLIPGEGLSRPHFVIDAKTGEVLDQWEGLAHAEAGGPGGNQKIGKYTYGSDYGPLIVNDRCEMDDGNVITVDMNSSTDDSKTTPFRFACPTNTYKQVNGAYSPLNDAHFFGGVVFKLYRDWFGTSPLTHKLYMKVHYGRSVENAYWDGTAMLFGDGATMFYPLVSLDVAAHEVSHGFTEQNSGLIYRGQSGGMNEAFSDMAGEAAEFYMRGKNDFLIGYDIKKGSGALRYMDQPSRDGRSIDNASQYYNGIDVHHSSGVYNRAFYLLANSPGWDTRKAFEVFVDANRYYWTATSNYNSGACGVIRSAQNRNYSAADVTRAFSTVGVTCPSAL",
  "experiment": "Fluorometric Assay",
  "experimental": "Method: 10 to 140 ng/ml purified LasB is incubated with 250 μM Abz-Ala-Gly-Leu-Ala-p-Nitro-Benzyl-Amide in 50 mM Tris-HCl pH 7.4, 2.5 mM CaCl2), 0.01% of Triton X100 at 37° C. LasB activity (corresponding to fluorescence emission induced by substrate hydrolysis) is measured over 30 min at 37° C. with a fluorescence plate reader such as the Perkin Elmer Envision or similar. Different range of inhibitor concentrations are routinely assessed depending of inhibitor potency from 0.0016 to 200 μM (2-fold dilutions series) in order to determine IC50.",
  "data": [
    {"smiles": "COc1cc2sc(CNC(=O)C3(CC(=O)O)Cc4cc(F)c(F)cc4C3)nc2cc1C(=O)N1CCN(C)CC1", "note": "[US12247013, Example 34]", "values": [
      {"measurement": "Ki", "result": "< 0.05", "unit": "µM"}
    ]}
  ]
}
